Laboratory results taken from patent US20250129067A1 (Progentos Therapeutics, Inc., priority 2021, published 2025).

Assays:
PDGFRα = PDGFRα (Homo sapiens (Human), UniProt P16234); test: PDGFRα kinase enzyme assay (Promega PDGFRα Kinase Enzyme System, ADP-Glo); assay type: biochemical; conditions: 11-point dose response, 10,000 nM to 0.169 nM; 150 uM ATP; BLQ = below limit of quantitation; read-out: IC50 Values on PDGFRα Kinase Inhibition, IC50
Procedure: The PDGFRα enzyme assays were conducted per the manufacturer's directions (Promega PDGFRα Kinase Enzyme System and ADP Glo Assay Cat #V8011). […] 20 ng of purified PDGFRα protein was added to the test article. […] ADP-Glo was added to halt the kinase reaction and deplete the remaining ATP. Kinase detection reagent, containing luciferase and luciferin, was used to convert the ADP signal into luminescence. Luminescence was measured using a Molecular Devices Spectramax ID5 and compared to a standard curve to determine kinase activity. IC50s were calculated using Prism 9, Graphpad software.

[1] = tested on: Oligodendrocyte progenitor cells (OPCs); test: In vitro OPC differentiation assay, GPR17 expression (immunocytochemistry); conditions: 72 hours, fold change over vehicle; for GPR17 Fold Induction (Over Vehicle; 3 μM): 3 μM (10× concentration, final 0.3 μM); for GPR17 Fold Induction (Over Vehicle; 5 μM): 5 μM (10× concentration, final 0.5 μM)
Procedure: To assess the effects of the PDGFRα inhibitors on OPC differentiation, primary OPCs were cultured and exposed to compounds. The number of newly generated oligodendrocytes was assessed by monitoring GPR17 expression. GPR17 is preferentially expressed in actively differentiating oligodendrocytes, allowing them to be distinguished from precursors and more differentiated oligodendrocytes.
Cortices from postnatal day (P) 1-3 rats were dissected and collected into ice cold Hank's Balanced Salt Solution (HBSS). […] Briefly, the cortical cell suspension was centrifuged and washed with buffer (0.5% BSA in PBS) and labeled with Anti-A2B^5 MicroBeads (10 μL beads per 1×10^7 cells) for 15 minutes at 4° C. Following the incubation, cells were washed once with BSA buffer to remove unlabeled beads. A2B^5 positive cells were eluted on the column using the AutoMACS® (Miltenyi, as per manufacturer's protocol using “Possel-s” program). Eluted cells were further washed twice with OPC growth media. Cell counts were performed using Countess III cell counter (ThermoFisher; AMQAX2000) and cells were plated.
The plates were allowed to sit at room temperature for 15 minutes to ensure proper dispersion of cells in a well. The plates were then transferred to the incubator (37° C.; 5% CO2).
Cells were then incubated for 72 hours at 37° C., 5% CO2 before immunostaining for GPR17 marker expression.
Following 72 hours in culture, cells were fixed with 4% paraformaldehyde for 15 minutes and then washed three times in Dulbecco's phosphate buffered saline (DPBS). Prior to immunostaining, cells were treated with a blocking solution (10% normal goat serum containing 1% BSA and 0.1% Triton® X-100 in DPBS) for 15 minutes at room temperature. Primary antibody (anti-GPR17 at 1:2000; Origene TA811615) was applied to cells overnight at 4° C. in incubation solution containing 1% normal goat serum, 1% BSA, and 0.1% Triton X-100 in DPBS. […] The secondary antibody was applied in incubation solution for 2 hours at room temperature, protected from light.
The number of differentiated GPR17+ cells was normalized to the total nuclei count and percent differentiated GPR17+ cells were reported. Statistical analysis was done using one-way ANOVA with multiple comparisons and post-hoc Tukey test in GraphPad Prism (GraphPad Software).

Sequence of PDGFRα (P16234 24-1089): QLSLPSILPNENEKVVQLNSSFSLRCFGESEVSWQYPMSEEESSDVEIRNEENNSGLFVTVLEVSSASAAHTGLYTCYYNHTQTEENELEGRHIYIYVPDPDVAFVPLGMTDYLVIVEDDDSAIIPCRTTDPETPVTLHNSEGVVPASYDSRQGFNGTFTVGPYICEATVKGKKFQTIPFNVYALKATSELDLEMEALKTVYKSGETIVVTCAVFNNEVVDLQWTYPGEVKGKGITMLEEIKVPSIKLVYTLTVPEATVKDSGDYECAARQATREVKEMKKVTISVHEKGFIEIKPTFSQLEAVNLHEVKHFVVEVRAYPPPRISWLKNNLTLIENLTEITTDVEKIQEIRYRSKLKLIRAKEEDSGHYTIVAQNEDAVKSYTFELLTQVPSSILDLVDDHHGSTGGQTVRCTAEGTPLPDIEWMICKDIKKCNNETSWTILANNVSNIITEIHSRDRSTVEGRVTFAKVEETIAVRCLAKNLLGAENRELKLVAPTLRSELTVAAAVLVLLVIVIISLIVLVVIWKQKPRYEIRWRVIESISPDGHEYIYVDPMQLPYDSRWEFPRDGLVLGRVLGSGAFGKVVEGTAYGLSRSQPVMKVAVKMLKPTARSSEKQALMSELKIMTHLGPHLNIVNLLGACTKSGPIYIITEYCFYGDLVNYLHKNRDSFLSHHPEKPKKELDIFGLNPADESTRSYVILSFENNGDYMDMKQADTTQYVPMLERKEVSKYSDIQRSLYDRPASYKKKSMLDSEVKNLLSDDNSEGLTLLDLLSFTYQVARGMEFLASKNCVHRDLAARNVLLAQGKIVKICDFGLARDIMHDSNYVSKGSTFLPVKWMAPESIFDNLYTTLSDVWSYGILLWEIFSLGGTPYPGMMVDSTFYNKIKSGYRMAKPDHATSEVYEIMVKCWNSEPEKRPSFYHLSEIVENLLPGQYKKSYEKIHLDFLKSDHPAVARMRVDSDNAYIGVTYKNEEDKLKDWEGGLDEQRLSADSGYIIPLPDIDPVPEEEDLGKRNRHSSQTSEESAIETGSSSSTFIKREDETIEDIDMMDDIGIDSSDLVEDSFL

Structure (SMILES)	IC50 (PDGFRα)	GPR17 Fold Induction (Over Vehicle; 3 μM) [1]	GPR17 Fold Induction (Over Vehicle; 5 μM) [1]
Cn1cc(-c2ccn3ncc(N4CCN(c5ncc(Cc6ccccc6)cn5)CC4)c3c2)cn1 [Compound 4, 3-[4-(5-benzylpyrimidin-2-yl)piperazin-1-yl]-5-(1-methyl-1H-pyrazol-4-yl)pyrazolo[1,5a]pyridine]	> 10 µM		
Cn1cc(-c2ccc3c(N4CCN(c5ncc(Cc6ccccc6)cn5)CC4)nnn3c2)cn1 [Compound 9, 3-[4-(5-benzylpyrimidin-2-yl)piperazin-1-yl]-6-(1-methyl-1H-pyrazol-4-yl)[1,2,3]triazolo[1,5-a]pyridine]	> 10 µM	1.88	
Cn1cc(-c2ccn3c(N4CCN(c5ncc(Cc6ccccc6)cn5)CC4)nnc3c2)cn1 [Compound 24, 3-[4-(5-benzylpyrimidin-2-yl)piperazin-1-yl]-7-(1-methyl-1H-pyrazol-4-yl)[1,2,4]triazolo[4,3-a]pyridine]	> 10 µM	0.54	
Cn1cc(-c2ccc3c(N4CCN(c5ncc(C(=O)c6ccc(F)cc6)cn5)CC4)cnn3c2)cn1 [Compound 25, (4-fluorophenyl)(2-{4-[6-(1-methyl-1H-pyrazol-4-yl)pyrazolo[1,5-a]pyridin-3-yl]piperazin-1-yl}pyrimidin-5-yl)methanone]	> 10 µM	1.07	
Cn1cc(-c2ccc3c(N4CCN(C(=O)OC(C)(C)C)CCC4=O)cnn3c2)cn1 [Compound 27, tert-butyl 4-[6-(1-methyl-1H-pyrazol-4-yl)pyrazolo[1,5-a]pyridine-3-yl]-5-oxo-1,4-diazepane-1-carboxylate]	> 10 µM	0.96	
Cn1cc(-c2ccc3c(N4CC5(CN(c6ncc(Cc7ccccc7)cn6)C5)C4)cnn3c2)cn1 [Compound 48, 3-[6-(5-benzylpyrimidin-2-yl)-2,6-diazaspiro[3.3]hept-2-yl]-6-(1-methyl-pyrazol-4-yl)pyrazolo[1,5-a]pyridine]	> 10 µM	2.75	
Cn1cc(-c2ccc3c(N4CCN(C5=NCC(c6ccccc6)O5)CC4)cnn3c2)cn1 (stereo not shown) [Compound 56, 6-(1-Methyl-1H-pyrazol-4-yl)-3-[4-(5-phenyl-4,5-dihydro-1,3-oxazol-2-yl)piperazin-1-yl]pyrazolo[1,5-a]pyridine]	1.44 µM	4.54	
C[C@@H](OC(=O)N1CCN(c2cnn3cc(-c4cnn(C)c4)ccc23)CC1)C1CCCCC1 [Compound 57, (1R)-1-cyclohexylethyl 4-[6-(1-methyl-1H-pyrazol-4-yl)pyrazolo[1,5-a]pyridin-3-yl]piperazine-1-carboxylate]	5.58 µM	5.28	
Cn1cc(-c2ccc3c(N4CCN(c5ncc(CC6CCCCC6)cn5)CC4)cnn3c2)cn1 [Compound 62, 3-{4-[5-(cyclohexylmethyl)pyrimidin-2-yl]piperazin-1-yl}-6-(1-methyl-1H-pyrazol-4-yl)pyrazolo[1,5-a]pyridine]	0.415 µM	6.53	
Cn1cc(-c2ccc3c(N4CCN(c5cnc(Cc6ccccc6)nc5)CC4)cnn3c2)cn1 [Compound 70, 3-[4-(2-benzylpyrimidin-5-yl)piperazin-1-yl]-6-(1-methyl-1H-pyrazol-4-yl)pyrazolo[1,5-a]pyridine]	6.7 µM	3.72	
Cn1cc(-c2ccn3c(N4CCN(C(=O)OC(C)(C)C)CC4)cnc3n2)cn1 [Compound 87]		1.43	
Cn1cc(-c2ccc3c(N4CCN(C(=O)OCc5ccc(Cl)cc5)CC4)cnn3c2)cn1 [Compound 198, 4-chlorobenzyl 4-(6-(1-methyl-1H-pyrazol-4-yl)pyrazolo[1,5-a]pyridin-3-yl)piperazine-1-carboxylate]		9.23	
Cn1cc(-c2ccc3c(CCc4ncc(Cc5ccccc5)cn4)cnn3c2)cn1 [Compound 305, 3-(2-(5-benzylpyrimidin-2-yl)ethyl)-6-(1-methyl-1H-pyrazol-4-yl)pyrazolo[1,5-a]pyridine]		1.15	

More lines, now with the values ahead:

IC50 (PDGFRα)	GPR17 Fold Induction (Over Vehicle; 3 μM) [1]	GPR17 Fold Induction (Over Vehicle; 5 μM) [1]	Structure (SMILES)
> 10 µM	0.68		Cn1cc(-c2ccc3c(N4CCNCC4)cnn3c2)cn1 [Compound 12, 1-[6-(1-methylpyrazol-4-yl)pyrazolo[1,5-a]pyridin-3-yl]piperazine]
4.31 µM	1.11		Cn1cc(-c2ccc3c(N4CCN(C(=O)OCC5CCOCC5)CC4)cnn3c2)cn1 [Compound 14, Tetrahydro-2H-pyran-4-ylmethyl 4-[6-(1-methyl-1H-pyrazol-4-yl)pyrazolo[1,5-a]pyridin-3-yl]piperazine-1-carboxylate]
> 10 µM	0.83		CN1CCC(OC(=O)N2CCN(c3cnn4cc(-c5cnn(C)c5)ccc34)CC2)CC1 [Compound 19, 1-methylpiperidin-4-yl 4-[6-(1-methyl-1H-pyrazol-4-yl)pyrazolo[1,5-a]pyridin-3-yl]piperazine-1-carboxylate]
> 10 µM	0.58		CN1CCC(COC(=O)N2CCN(c3cnn4cc(-c5cnn(C)c5)ccc34)CC2)CC1 [Compound 20, (1-methylpiperidin-4-yl)methyl 4-[6-(1-methyl-1H-pyrazol-4-yl)pyrazolo[1,5-a]pyridin-3-yl]piperazine-1-carboxylate]
> 10 µM	6.13	3.46	Cn1cc(-c2cn3ncc(N4CCN(c5ncc(Cc6ccccc6)cn5)CC4)c3cn2)cn1 [Compound 22, 3-[4-(5-Benzylpyrimidin-2-yl)piperazin-1-yl]-6-(1-methyl-1H-pyrazol-4-yl)pyrazolo[1,5-a]pyrazine]
> 10 µM	1.84		Cn1cc(-c2ccc3c(N4CCN(C(=O)OC(C)(C)C)CC4=O)cnn3c2)cn1 [Compound 28, tert-butyl 4-[6-(1-methyl-1H-pyrazol-4-yl)pyrazolo[1,5-a]pyridine-3-yl]-3-oxopiperazine-1-carboxylate]
0.244 µM	9.76	6.22	CC(C)OC(=O)N1CCN(c2cnn3cc(-c4cnn(C)c4)ccc23)CC1 [Compound 31, isopropyl 4-[6-(1-methyl-1H-pyrazol-4-yl)pyrazolo[1,5-a]pyridin-3-yl]piperazine-1-carboxylate]
> 10 µM	1.78		Cn1cc(-c2ccc3c(N4CCN(C(=O)OC5CCOCC5)CC4)cnn3c2)cn1 [Compound 39, tetrahydro-2H-pyran-4-yl 4-[6-(1-methyl-1H-pyrazol-4-yl)pyrazolo[1,5-a]pyridin-3-yl]piperazine-1-carboxylate]
2.42 µM	1.27		Cn1cc(-c2ccc3c(N4CCCN(C(=O)OC(C)(C)C)CC4)cnn3c2)cn1 [Compound 40, tert-butyl 4-(6-(1-methyl-1H-pyrazol-4-yl)pyrazolo[1,5-a]pyridin-3-yl)-1,4-diazepane-1-carboxylate]
8.25 µM	10.21	4.64	Cn1cc(-c2ccc3c(N4CCN(c5ncc(CN6CCCCC6)cn5)CC4)cnn3c2)cn1 [Compound 42, 6-(1-methyl-1H-pyrazol-4-yl)-3-{4-[5-(piperidin-1-ylmethyl)pyrimidin-2-yl]piperazin-1-yl}pyrazolo[1,5-a]pyridine]
0.385 µM	12.48	6.92	CN(C)CCn1cc(-c2ccc3c(N4CCN(c5ncc(Cc6ccccc6)cn5)CC4)cnn3c2)cn1 [Compound 43, 2-(4-{3-[4-(5-benzylpyrimidin-2-yl)piperazin-1-yl]pyrazolo[1,5-a]pyridin-6-yl}-1H-pyrazol-1-yl)-N,N-dimethylethanamine]
1.39 µM	1.39		Cn1cc(-c2ccc3c(N4CCN(C(=O)OC(C)(C)C)CC4)cnn3n2)cn1 [Compound 45, Tert-butyl 4-[6-(1-methyl-1H-pyrazol-4-yl)pyrazolo[1,5-b]pyridazin-3-yl]piperazine-1-carboxylate]
3.99 µM	1.13		CC(C)NC(=O)N1CCN(c2cnn3cc(-c4cnn(C)c4)ccc23)CC1 [Compound 47, N-isopropyl 4-[6-(1-methyl-1H-pyrazol-4-yl)pyrazolo[1,5-a]pyridin-3-yl]piperazine-1-carboxamide]
5.03 µM	2.92		Cn1cc(-c2ccc3c(C4=CCN(c5ncc(Cc6ccccc6)cn5)CC4)cnn3c2)cn1 [Compound 60, 3-[1-(5-benzylpyrimidin-2-yl)-1,2,3,6-tetrahydropyridin-4-yl]-6-(1-methyl-1H-pyrazol-4-yl)pyrazolo[1,5-a]pyridine]
1.24 µM	4.35		Cn1cc(-c2ccc3c(N4CCN(c5ncc(CC6CCOCC6)cn5)CC4)cnn3c2)cn1 [Compound 68, 6-(1-methyl-1H-pyrazol-4-yl)-3-{4-[5-(tetrahydro-2H-pyran-4-ylmethyl)pyrimidin-2-yl]piperazin-1-yl}pyrazolo[1,5-a]pyridine]
	1.57		CN(CCCN(C)c1cnn2cc(-c3cnn(C)c3)ccc12)c1ncc(Cc2ccccc2)cn1 [Compound 130]
	1.94		Cn1cc(-c2ccc3c(N4CCN(Cc5ccc(Cl)cc5)CC4)cnn3c2)cn1 [Compound 202, 3-(4-(4-chlorobenzyl)piperazin-1-yl)-6-(1-methyl-1H-pyrazol-4-yl)pyrazolo[1,5-a]pyridine]
